Here are results for one compound from patent US20080194678A1, “Process To Obtain Synthetic And Semi-Synthetic Lignan Derivatives, Their Antiparasitic Activities And Corresponding Pharmaceutical Formulations, Including The Therapeutic Method Using Said Lignan For The Treatment Of Parasitosis” (Fundacao de Amparo a Pesquissa do Estado de Aao Pa, priority 2005, published 2008).

The subject of data set [1] is S. mansoni. Briefly: Couples of S. mansoni recovered from infected BALB/c mice by perfusion after treatment. The data set is classed as in vivo, Schistosoma mansoni. The settings on record: 10 mg/kg of weight, after 40 days of infection with S. mansoni. The protocol:
FIG. 8—graph with the number of recovered worms vs. effect of the drug. Couples of S. mansoni recovered from BALB/c mice by perfusion of the door-kidney system. Five mice, after 40 days of infection (approximately 200 cercariae), were submitted to test with a single dose of the drug dinitrocubebine (10 mg/kg of weight). In the group untreated (negative control treated only with a 5% dimethyl sulfoxide solution in water), 40 couples/animal were recovered. In the treated group, only 5 couples were recovered. […] FIG. 9—graph with the number of recovered worms vs. effect of the drug. Couples of S. mansoni recovered from BALB/c mice by perfusion of the door-kidney system. Five mice, after 40 days of infection (approximately 200 cercariae), were submitted to test with a single dose of the drug methylcubebin (10 mg/kg of weight). In the untreated group (negative control treated only with a 5% dimethyl sulfoxide solution in water), 40 couples/animal were recovered. In the treated group, only five couples were recovered. […] In in vivo tests, the drugs (−)—O-methylcubebin (6) and (−)-6,6′-dinitronokinin (8) presented results similar to the obtained with praziquantel, in the same concentration (10 mg/kg of weight), i.e. reduction of approximately 90% of the viable worms, after 40 days of infection with S. mansoni. […] Such a result was extremely important and promising, since the drug was given to the parasites when they were still maturing and had not yet reached the evolutive form of adult worms. […] Thus, the developed medicine may be used not only as a healing drug, but also as a prophylactic drug in the combat against schistosomosis. Another advantage relates to the low toxicity of these substances for use in antiparasitic therapeutics, since many of these derivatives have hepatic-protecting and antioxidant action. Thus, the use of these lignans certainly offers higher safety for therapeutic use than praziquantel. So, the use of these substances in medicines for longer treatments is safer than with praziquantel and they have nearly no significant side effects. Finally, this group of substances is obtained from natural sources, which is not applicable to praziquantel.

The test system of data set [2] is S. mansoni. The settings on record: vertebrate host; cited from earlier work.
Another data set relates to Schistosoma. The settings on record: patients; cited from earlier work.

Take `O=C(C1CCCCC1)N1CC(=O)N2CCc3ccccc3C2C1` (stereo not drawn) [praziquantel]: in the data set on S. mansoni [1], the “reduction of the viable worms” value is recorded as “approximately 90%”. Besides, the “evolutive form of S. mansoni acted on” value in the data set on S. mansoni [2] was “acts only on the evolutive form of adult worms”. Also, the side effects entry with Schistosoma was “abdominal pain, diarrhea, fever and urticaria-shaped reactions”.
